target: T1, Neutrophil elastase (Homo sapiens, UniProt P08246); assay: Inhibitory concentration required against Human Leukocyte Elastase (HLE) for 50% reduction in rate of hydrolysis of (suc-Ala-Ala-Pro-Ala-p-NA) peptide;compound was inactive
T1 sequence (P08246 whole entry): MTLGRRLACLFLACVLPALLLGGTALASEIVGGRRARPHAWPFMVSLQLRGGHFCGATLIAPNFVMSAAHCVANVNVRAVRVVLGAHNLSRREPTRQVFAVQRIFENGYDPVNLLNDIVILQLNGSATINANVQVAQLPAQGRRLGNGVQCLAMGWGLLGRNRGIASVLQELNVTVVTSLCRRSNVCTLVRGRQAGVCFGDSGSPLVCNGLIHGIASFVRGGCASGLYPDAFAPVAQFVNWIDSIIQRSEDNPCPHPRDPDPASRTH

Row | SMILES | IC50 [µM]
1 | CC1(C)[C@H](C(=O)OCc2ccccc2)N2C(=O)[C@@H](NC(=O)C(F)(F)F)[C@H]2S1(=O)=O | 2

target: T1, Neutrophil elastase; assay: Inhibitory concentration required against Human Leukocyte Elastase (HLE) for 50% reduction in rate of hydrolysis of (suc-Ala-Ala-Pro-Ala-p-NA) peptide

Row | SMILES | IC50 [µM]
2 | C[C@@H](OC(=O)NCc1ccccc1)[C@H]1C(=O)N2[C@@H](C(=O)OCc3ccccc3)C(C)(C)S(=O)(=O)[C@H]12 | 0.7
3 | CCO[C@H]1C(=O)N2[C@@H](C(=O)OCc3ccccc3)C(C)(C)S(=O)(=O)[C@H]12 | 2
4 | CO[C@H]1C(=O)N2[C@@H](C(=O)OCC(F)(F)F)C(C)(C)S(=O)(=O)[C@H]12 | 4
5 | CC1(C)[C@H](C(=O)OCC(F)(F)F)N2C(=O)[C@@H](NC(=O)C(F)(F)F)[C@H]2S1(=O)=O | 3
6 | CC[C@@]1(NC(=O)C(F)(F)F)C(=O)N2[C@@H](C(=O)OCc3ccccc3)C(C)(C)S(=O)(=O)[C@@H]21 | 3
7 | CC(=O)O[C@H]1C(=O)N2[C@@H]1SC(C)(C)[C@@H]2C(=O)OCc1ccccc1 | 10
8 | CO[C@@]1(NC(=O)C(F)(F)F)C(=O)N2[C@@H](C(=O)OCc3ccccc3)C(C)(C)S(=O)(=O)[C@@H]21 | 9
9 | CO[C@]1(NC(=O)C(F)(F)F)C(=O)N2[C@@H](C(=O)OCc3ccccc3)C(C)(C)S(=O)(=O)[C@@H]21 | 0.8
10 | CC1(C)[C@H](C(=O)OCc2ccccc2)N2C(=O)[C@H](COC(=O)NCc3ccccc3)[C@H]2S1(=O)=O | 4
11 | CC1(C)[C@H](C(=O)OCc2ccccc2)N2C(=O)[C@H](OC(=O)COc3ccccc3)[C@H]2S1(=O)=O | 5
12 | CC1(C)[C@H](C(=O)OCc2ccccc2)N2C(=O)[C@H](NC(=O)C(F)(F)F)[C@H]2S1(=O)=O | 0.15
13 | CC1(C)S[C@@H]2[C@H](NC(=O)C(F)(F)F)C(=O)N2[C@H]1C(=O)OCc1ccccc1 | 12
14 | CC1(C)[C@H](C(=O)OCc2ccccc2)N2C(=O)[C@H](Cl)[C@H]2S1(=O)=O | 14
15 | CC1(C)[C@H](C(=O)OCc2ccccc2)N2C(=O)[C@H](OCc3ccccc3)[C@H]2S1(=O)=O | 4
16 | CC(=O)O[C@H]1C(=O)N2[C@@H](C(=O)OCc3ccccc3)C(C)(C)[S+]([O-])[C@@H]12 (stereo not given in full) | 5
17 | C[C@@H](OC(=O)NCc1ccccc1)[C@@H]1C(=O)N2[C@@H](C(=O)OCc3ccccc3)C(C)(C)S(=O)(=O)[C@H]12 | 10
18 | CC(=O)O[C@H]1C(=O)N2[C@@H](C(=O)OCc3ccccc3)C(C)(C)S(=O)(=O)[C@H]12 | 0.2
19 | CC1(C)[C@H](C(=O)OCc2ccccc2)N2C(=O)[C@@](C)(NC(=O)C(F)(F)F)[C@H]2S1(=O)=O | > 20
20 | CC1(C)[C@H](C(=O)OCc2ccccc2)N2C(=O)[C@H](OC(=O)Cc3ccccc3)[C@H]2S1(=O)=O | 4
21 | C[C@H](OC(=O)NCc1ccccc1)[C@H]1C(=O)N2[C@@H](C(=O)OCc3ccccc3)C(C)(C)S(=O)(=O)[C@H]12 | 7
22 | CC1(C)[C@H](C(=O)OCc2ccccc2)N2C(=O)[C@@H](COC(=O)NCc3ccccc3)[C@H]2S1(=O)=O | 0.7
23 | CN(C(=O)C(F)(F)F)[C@H]1C(=O)N2[C@@H](C(=O)OCc3ccccc3)C(C)(C)S(=O)(=O)[C@H]12 | 0.2
24 | COC(=O)[C@@H]1N2C(=O)[C@H](OC)[C@H]2S(=O)(=O)C1(C)C | 20
25 | CC1(C)[C@H](C(=O)OCC(F)(F)F)N2C(=O)[C@H](NC(=O)C(F)(F)F)[C@H]2S1(=O)=O | 0.1
26 | Cc1ccc(S(=O)(=O)O[C@H]2C(=O)N3[C@@H](C(=O)OCc4ccccc4)C(C)(C)S(=O)(=O)[C@H]23)cc1 | 0.05
27 | CC1(C)S[C@@H]2[C@@H](NC(=O)C(F)(F)F)C(=O)N2[C@H]1C(=O)OCc1ccccc1 | 4
28 | CN(C(=O)C(F)(F)F)[C@@H]1C(=O)N2[C@@H](C(=O)OCc3ccccc3)C(C)(C)S(=O)(=O)[C@H]12 | 0.7
29 | CO[C@H]1C(=O)N2[C@@H](C(=O)OC(C)(C)C)C(C)(C)S(=O)(=O)[C@H]12 | > 20
30 | C[C@H](OC(=O)NCc1ccccc1)[C@@H]1C(=O)N2[C@@H](C(=O)OCc3ccccc3)C(C)(C)S(=O)(=O)[C@H]12 | 0.3
